In patent US20230286927A1, “2-PHENYLBENZOTRIAZOL-5-AMINE DERIVATIVES FOR THE TREATMENT AND PROPHYLAXIS OF HEPATITIS B VIRUS (HBV) INFECTION” (priority 2020, published 2023):

Key:
HBsAg = assay: PHH natural infection assay, HBsAg (alphalisa); format: cell-based, HBV; details: Hepatitis B virus, Hepatocyte, 72 h, read-out: HBsAg IC50
Description: (§1) Detailed procedures regarding primary human hepatocyte (PHH) HBV natural infection assay are described as below. One tube of frozen PHH (10 million cells) is thawed in 37° C. water bath and then transferred to 20 mL of PHH thawing medium (Sigma, InVitroGRO HT Medium, Cat. S03319) with gently mixing. The cells were then centrifuged at […] for 5 min, the supernatant was discarded and the tube was refilled with 25 mL of PHH plating medium (Sigma, InVitroGRO CP Medium, Cat. S03317). The tube was shaken very gently to re-suspend all cells, and then 50 μl of cells were transferred to each well 384-well collagen I coated plate with appropriate liquid handling equipment, e.g. Integra VIAFLO384 or Agilent Bravo. The cells were then cultured for 24 hours in a cell incubator. For HBV infection, after PHH attachment on the culture plate, the plating medium was removed and replenished with PHH culture medium containing HBV virus. The PHH culture medium was prepared with Dulbecco's Modified Eagle Medium (DMEM)/F12 (1:1 in volume ratio) containing 10% fetal bovine serum (Gibco, Cat. 10099141), 5 ng/mL human epidermal growth factor (Gibco, Cat.PHG031IL), 20 ng/mL dexamethasone (Sigma, Cat.D4902-100 mg), 250 ng/mL human recombinant insulin (Gibco, Cat.41400045) and 100 U/mL penicillin. HBV virus at 200 genome equivalent (GE) per cell with 4% PEG8000 (Sigma, Cat.P1458) containing culture medium were added to the PHH culture medium for infection. The cells were then cultured for 24 hours in cell incubator. Then the cell culture supernatant was removed. The HBV-infected PHH were cultured with sandwich culture method with PHH culture medium containing 1% DMSO and 0.25 mg/mL matrix gel for 72 hours. The supernatant was then refreshed with PHH culture medium containing different concentrations of testing compounds for two times with 72-hour interval. At the end of treatment, the supernatant was collected for viral markers measurements, including HBsAg, HBeAg, HBV DNA and cytotoxicity. HBsAg and HBeAg were detected using alphalisa method using their specific antibodies. For HBV DNA detection, HBV DNA Quantitative Fluorescence Diagnostic Kit (Sansure Biotech Inc.) was used following the manufacture's protocol. Cytotoxicity was determined using Cell Counting Kit-8 (CCK8, Dojindo Molecular Technologies, Inc.).
(§2) The compounds of the present invention were tested for their capacity to inhibit HBsAg and HBeAg as described herein.

HBeAg = assay: PHH natural infection assay, HBeAg (alphalisa); format: cell-based, HBV; details: Hepatitis B virus, Hepatocyte, 72 h, read-out: HBeAg IC50
Description: as §1, §2

[1] = Cytotoxicity in PHH natural infection assay (Cell Counting Kit-8); format: cell-based; details: HBV-infected primary human hepatocytes, CCK8
Description: as §1

| Structure (SMILES) | IC50 (HBsAg) [µM] | IC50 (HBeAg) [µM] | CC50 at 144 h [1] [µM] |
| --- | --- | --- | --- |
| COCCNc1ccc2nn(-c3ccc(S(C)(=O)=O)cc3)nc2c1 [Example 19, N-(2-methoxyethyl)-2-(4-methylsulfonylphenyl)benzotriazol-5-amine] | 8.94 | 6.97 | > 100 |
| Clc1ccc(-n2nc3ccc(NC4CCCC4)cc3n2)cc1 [Example 31, 2-(4-Chlorophenyl)-N-cyclopentyl-benzotriazol-5-amine] | 8.86 | 11.9 | > 100 |
| O=C(Nc1ccc2nn(-c3ccc(F)cc3)nc2c1)C1CCCC1 [Example 43, N-[2-(4-fluorophenyl)benzotriazol-5-yl]cyclopentanecarboxamide] | 8.2 | 12.8 | > 100 |
| CN(C)C(=S)Nc1ccc2nn(-c3ccc(Cl)cc3)nc2c1 [Example 61, 3-[2-(4-Chlorophenyl)benzotriazol-5-yl]-1,1-dimethyl-thiourea] | 0.79 | 1.22 | > 100 |
| CNc1ccc2nn(-c3ccc(Cl)cc3)nc2c1 [Example 12, 2-(4-Chlorophenyl)-N-methyl-benzotriazol-5-amine] | 1.83 | 2.44 | > 100 |
| CNC(=S)Nc1ccc2nn(-c3ccc(Cl)cc3)nc2c1 [Example 54, 1-[2-(4-chlorophenyl)benzotriazol-5-yl]-3-methyl-thiourea] | 2.68 | 4.59 | > 100 |
| COCCN(C)c1ccc2nn(-c3ccc(Cl)cc3)nc2c1 [Example 35, 2-(4-Chlorophenyl)-N-(2-methoxyethyl)-N-methyl-benzotriazol-5-amine] | 2 | 3.5 | > 100 |
| O=C(Nc1ccc2nn(-c3ccc(Cl)cc3)nc2c1)C1COCCO1 (stereo not drawn) [Example 47, N-[2-(4-chlorophenyl)benzotriazol-5-yl]-1,4-dioxane-2-carboxamide] | 3.73 | 1.84 | > 100 |
| CNC(=O)CCNc1ccc2nn(-c3ccc(Cl)cc3)nc2c1 [Example 37, 3-[[2-(4-Chlorophenyl)benzotriazol-5-yl]amino]-N-methyl-propanamide] | 4.64 | 8.68 | > 100 |
| Clc1ccc(-n2nc3ccc(NCC4CC4)cc3n2)cc1 [Example 25, 2-(4-Chlorophenyl)-N-(cyclopropylmethyl)benzotriazol-5-amine] | 5.95 | 7.52 | > 100 |
| O=C(Nc1ccc2nn(-c3ccc(F)cc3)nc2c1)C1CCCCO1 (stereo not drawn) [Example 42, N-[2-(4-fluorophenyl)benzotriazol-5-yl]tetrahydropyran-2-carboxamide] | 6.38 | 6.12 | > 100 |
| CC(C)c1csc(Nc2ccc3nn(-c4ccc(Cl)cc4)nc3c2)n1 [Example 62, N-[2-(4-chlorophenyl)benzotriazol-5-yl]-4-isopropyl-thiazol-2-amine] | 3.8 | 5.8 | > 100 |
| CCS(=O)(=O)c1ccc(-n2nc3ccc(N)cc3n2)cc1 [Example 8, 2-(4-Ethylsulfonylphenyl)benzotriazol-5-amine] | 6.32 | 6.26 | > 100 |
| Cc1cc2nn(-c3ccc(Cl)cc3)nc2cc1NC(=S)NC(=O)c1ccccc1 [Example 59, N-[[2-(4-chlorophenyl)-6-methyl-benzotriazol-5-yl]carbamothioyl]benzamide] | 1.11 | 3.04 | > 100 |
| CS(=O)(=O)c1ccc(-n2nc3ccc(N)cc3n2)cc1 [Example 7, 2-(4-Methylsulfonylphenyl)benzotriazol-5-amine] | 5.67 | 3.21 | > 100 |
| Nc1ccc2nn(-c3ccc(F)cc3)nc2c1 [Example 4, 2-(4-Fluorophenyl)benzotriazol-5-amine] | 5.04 | 5.29 | > 100 |

| Structure (SMILES) | IC50 (HBsAg) [µM] | IC50 (HBeAg) [µM] | CC50 at 144 h [1] [µM] |
| --- | --- | --- | --- |
| COc1ccc(-n2nc3ccc(N)cc3n2)cc1 [Example 3, 2-(4-Methoxyphenyl)benzotriazol-5-amine] | 1.5 | 1.7 | > 100 |
| O=C(Nc1ccc2nn(-c3ccc(F)cc3)nc2c1)C1CCOC1 (stereo not drawn) [Example 40, N-[2-(4-fluorophenyl)benzotriazol-5-yl]tetrahydrofuran-3-carboxamide] | 6.66 | 6.76 | > 100 |
| Cc1csc(Nc2ccc3nn(-c4ccc(Cl)cc4)nc3c2)n1 [Example 64, N-[2-(4-chlorophenyl)benzotriazol-5-yl]-4-methyl-thiazol-2-amine] | 1.42 | 3.04 | > 100 |
| O=C(CC(F)(F)F)Nc1ccc2nn(-c3ccc(F)cc3)nc2c1 [Example 44, 3,3,3-trifluoro-N-[2-(4-fluorophenyl)benzotriazol-5-yl]propanamide] | 6.87 | 11.7 | > 100 |
| Cc1nc(Nc2ccc3nn(-c4ccc(Cl)cc4)nc3c2)sc1C [Example 65, N-[2-(4-chlorophenyl)benzotriazol-5-yl]-4,5-dimethyl-thiazol-2-amine] | 2.67 | 2.91 | > 100 |
| CC(=O)NC(=S)Nc1ccc2nn(-c3ccc(Cl)cc3)nc2c1 [Example 55, N-[[2-(4-chlorophenyl)benzotriazol-5-yl]carbamothioyl]acetamide] | 2.97 | 5.1 | > 100 |
| CC(C)C(=O)NC(=S)Nc1ccc2nn(-c3ccc(Cl)cc3)nc2c1 [Example 57, N-[[2-(4-chlorophenyl)benzotriazol-5-yl]carbamothioyl]-2-methyl-propanamide] | 2.5 | 3.72 | > 100 |
| COc1cccc(-n2nc3ccc(N)cc3n2)c1 [Example 6, 2-(3-Methoxyphenyl)benzotriazol-5-amine] | 2.44 | 4.1 | > 100 |
| O=C(CC(F)(F)F)Nc1ccc2nn(-c3ccc(Cl)cc3)nc2c1 [Example 51, N-[2-(4-chlorophenyl)benzotriazol-5-yl]-3,3,3-trifluoro-propanamide] | 4.09 | 1.66 | > 100 |
| COCCS(=O)(=O)c1ccc(-n2nc3ccc(N)cc3n2)cc1 [Example 9, 2-[4-(2-Methoxyethylsulfonyl)phenyl]benzotriazol-5-amine] | 4.07 | 7.93 | > 100 |
| c1ccc(-n2nc3ccc(NC4CCCC4)cc3n2)cc1 [Example 16, N-cyclopentyl-2-phenyl-benzotriazol-5-amine] | 9.25 | 15.8 | > 100 |
| O=C(NC(=S)Nc1ccc2nn(-c3ccc(Cl)cc3)nc2c1)c1ccccc1 [Example 58, N-[[2-(4-chlorophenyl)benzotriazol-5-yl]carbamothioyl]benzamide] | 1.17 | 1.27 | > 100 |
| CC(=O)Nc1ccc2nn(-c3ccc(Cl)cc3)nc2c1 [Example 38, N-[2-(4-chlorophenyl)benzotriazol-5-yl]acetamide] | 3.65 | 5.54 | > 100 |
| CC(Nc1ccc2nn(-c3ccc(Cl)cc3)nc2c1)C(F)(F)F (stereo not drawn) [Example 32, 2-(4-Chlorophenyl)-N-(2,2,2-trifluoro-1-methyl-ethyl)benzotriazol-5-amine] | 9.14 | 10.7 | > 100 |
| Nc1ccc2nn(-c3cccc(F)c3)nc2c1 [Example 5, 2-(3-Fluorophenyl)benzotriazol-5-amine] | 3.57 | 6.72 | > 100 |
